For one data set, the target named is Phosphodiesterase 4 (Homo sapiens, UniProt P27815+Q08499+Q07343+Q08493). In words: Inhibition of Phosphodiesterase 4 (PDE-4) from human U937 cells. It is filed as cell-based. The note with it: u-937.
The target in data set [1] is Phosphodiesterase 3 (Homo sapiens) (UniProt Q14432+Q13370). In words: Inhibition of Phosphodiesterase 3 (PDE3) from human platelet at 20 uM.
A short description of data set [2]: Tested for the oral bioavailability of the compound. It is filed as ADME, organism-based, Cavia porcellus. As to conditions: guinea pig, in vivo, read-out: Bioavailabiility.
Data set [3] in a line: Compound at a dose 5 mg/kg was administered orally to guinea pig and the pharmacokinetic parameter (Cmax) was reported. Details: dose 5 mg/kg, route oral. It is filed as ADME, organism-based, Cavia porcellus. The note with it: in vivo, po.
Data set [4] is described as follows: Tested for the half life period of the compound, intravenously. It is filed as ADME, organism-based, Cavia porcellus. As to conditions: guinea pig, in vivo, iv.
The nature of data set [5]: Tested for the pharmacokinetic parameter in guinea pig, administered orally at 5 mg/kg. Type of data set: ADME, organism-based, Cavia porcellus. Details: dose 5 mg/kg, route oral. As to conditions: in vivo, po.

Broadly, the IC50 is the midpoint of a concentration-inhibition curve. Usually inhibition stands for the relative decrease from the control value, in per cent. A word on the Cmax: it is the peak of the concentration-time curve. The half-life is how long it takes for the measured level to halve. By AUC is commonly meant concentration integrated over time. High values mean high exposure, low ones low exposure.

Each structure is given as a SMILES string.

The compound `COc1ccc(C(=O)Nc2c(Cl)cncc2Cl)c2[nH]c(C(F)(F)F)nc12` displayed an IC50 against Phosphodiesterase 4 of 120 nM. For the same compound, the inhibition in data set [1] turned out to be 43%.
In turn, `COc1ccc(C(=O)Nc2c(Cl)cncc2Cl)c2c1nc(C(C)=O)n2C` gave an IC50 on Phosphodiesterase 4 of 480 nM.
The same measure, in the same setting: as for `COc1ccc(C(=O)Nc2c(Cl)cncc2Cl)c2cc(C(C)=O)oc12`, the figure is 1 nM.
Compound `COc1ccc(C(=O)Nc2c(Cl)cncc2Cl)c2cccnc12` came in with an IC50 at Phosphodiesterase 4 of 170 nM. The bioavailability in data set [2] was found to be 62%. For the same compound, the Cmax in data set [3] was 473 ng/mL. The half-life in data set [4] is 36 min. The compound further showed an AUC in data set [5] of 925 ng·h/mL.
At Phosphodiesterase 4, `COc1ccc(C(=O)Nc2c(Cl)cncc2Cl)c2c1nc(C(F)(F)F)n2C` gave an IC50 of 290 nM. This compound also had an inhibition in data set [1] of 11%.
Compound `COc1ccc(C(=O)Nc2ccncc2)c2cccnc12` registered an IC50 on Phosphodiesterase 4 of 1900 nM.
Same read-out and setting: as for `COc1ccc(C(=O)Nc2ccncc2Cl)c2cccnc12`, the figure is 110 nM.

These data come from ChEMBL document CHEMBL1135146, “8-Methoxyquinoline-5-carboxamides as PDE4 inhibitors: a potential treatment for asthma” (Bioorg Med Chem Lett, 2002).
